# Calls of active or inactive are those of the source.
# Experiments:
# [1] = target: T1, Tyrosine-protein phosphatase non-receptor type 22 (Homo sapiens, UniProt Q9Y2R2); assay: PTPN22 phosphatase inhibition, dose response, selectivity assay for STEP inhibitor project, biochemical (AID 624241); format: functional
# T1 sequence (Q9Y2R2 whole entry): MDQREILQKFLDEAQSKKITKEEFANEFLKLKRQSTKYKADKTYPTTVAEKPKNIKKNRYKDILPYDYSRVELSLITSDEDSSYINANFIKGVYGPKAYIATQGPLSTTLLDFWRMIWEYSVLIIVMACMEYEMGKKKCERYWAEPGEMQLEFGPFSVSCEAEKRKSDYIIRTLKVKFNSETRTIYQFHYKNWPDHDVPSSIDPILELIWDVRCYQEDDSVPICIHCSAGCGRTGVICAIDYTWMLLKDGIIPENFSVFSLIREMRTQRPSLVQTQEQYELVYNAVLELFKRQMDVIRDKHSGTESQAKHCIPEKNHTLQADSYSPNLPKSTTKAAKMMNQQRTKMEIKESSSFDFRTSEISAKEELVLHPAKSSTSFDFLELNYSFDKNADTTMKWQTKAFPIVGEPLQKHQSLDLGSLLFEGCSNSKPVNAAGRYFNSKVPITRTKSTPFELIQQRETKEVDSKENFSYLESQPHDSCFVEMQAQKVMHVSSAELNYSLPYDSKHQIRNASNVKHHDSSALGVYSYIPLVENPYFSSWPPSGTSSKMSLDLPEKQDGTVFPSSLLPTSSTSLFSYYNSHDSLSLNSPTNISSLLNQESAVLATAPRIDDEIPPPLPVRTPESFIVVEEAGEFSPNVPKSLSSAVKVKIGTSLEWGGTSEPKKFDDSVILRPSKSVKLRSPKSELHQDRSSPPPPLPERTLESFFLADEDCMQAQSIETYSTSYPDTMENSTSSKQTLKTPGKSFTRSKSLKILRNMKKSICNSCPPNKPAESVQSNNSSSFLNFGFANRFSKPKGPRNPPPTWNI
# [2] = target: Eukaryotic translation initiation factor 4H (Homo sapiens, UniProt Q15056); assay: human eIF4H binding inhibitors, primary screen, translation initiation inhibitor project, biochemical, uHTS, fluorescence polarization (AID 2012)
# [3] = target: Genome polyprotein (dengue virus type 2, UniProt P29990); assay: Dengue-2 NS5 methyltransferase inhibitors, primary screen, biochemical, confirmation dose response (AID 588689); format: functional
# Sequence of Genome polyprotein (P29990 2492-3391 limits assumed): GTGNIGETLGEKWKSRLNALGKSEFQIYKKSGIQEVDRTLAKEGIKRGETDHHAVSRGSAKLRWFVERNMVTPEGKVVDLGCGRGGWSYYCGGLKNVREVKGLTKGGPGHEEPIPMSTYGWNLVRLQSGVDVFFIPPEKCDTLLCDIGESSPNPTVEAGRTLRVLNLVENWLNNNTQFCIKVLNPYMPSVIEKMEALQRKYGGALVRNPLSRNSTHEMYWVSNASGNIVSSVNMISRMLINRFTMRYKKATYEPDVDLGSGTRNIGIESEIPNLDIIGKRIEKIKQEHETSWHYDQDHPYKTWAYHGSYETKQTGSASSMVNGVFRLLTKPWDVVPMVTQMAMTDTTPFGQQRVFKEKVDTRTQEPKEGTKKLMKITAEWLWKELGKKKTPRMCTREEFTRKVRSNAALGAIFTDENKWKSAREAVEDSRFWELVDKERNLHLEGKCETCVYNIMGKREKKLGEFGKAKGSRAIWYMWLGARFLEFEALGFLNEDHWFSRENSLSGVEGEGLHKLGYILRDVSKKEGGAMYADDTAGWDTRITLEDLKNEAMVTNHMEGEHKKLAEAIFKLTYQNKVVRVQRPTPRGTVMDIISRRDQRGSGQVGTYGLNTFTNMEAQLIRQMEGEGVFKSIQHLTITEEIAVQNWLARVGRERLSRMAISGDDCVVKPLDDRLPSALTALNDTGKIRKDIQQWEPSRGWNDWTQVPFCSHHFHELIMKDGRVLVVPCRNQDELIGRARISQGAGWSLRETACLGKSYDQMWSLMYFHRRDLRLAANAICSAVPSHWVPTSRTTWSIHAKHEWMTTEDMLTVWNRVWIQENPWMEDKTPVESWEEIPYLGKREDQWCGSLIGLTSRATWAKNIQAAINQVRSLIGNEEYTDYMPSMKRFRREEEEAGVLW
# [4] = target: Polyadenylate-binding protein 1 (Homo sapiens, UniProt P11940); assay: PABP poly(A) RNA binding inhibitors, primary screen, biochemical, fluorescence polarization, uHTS (AID 2014)
# Sequence of Polyadenylate-binding protein 1 (P11940 whole entry): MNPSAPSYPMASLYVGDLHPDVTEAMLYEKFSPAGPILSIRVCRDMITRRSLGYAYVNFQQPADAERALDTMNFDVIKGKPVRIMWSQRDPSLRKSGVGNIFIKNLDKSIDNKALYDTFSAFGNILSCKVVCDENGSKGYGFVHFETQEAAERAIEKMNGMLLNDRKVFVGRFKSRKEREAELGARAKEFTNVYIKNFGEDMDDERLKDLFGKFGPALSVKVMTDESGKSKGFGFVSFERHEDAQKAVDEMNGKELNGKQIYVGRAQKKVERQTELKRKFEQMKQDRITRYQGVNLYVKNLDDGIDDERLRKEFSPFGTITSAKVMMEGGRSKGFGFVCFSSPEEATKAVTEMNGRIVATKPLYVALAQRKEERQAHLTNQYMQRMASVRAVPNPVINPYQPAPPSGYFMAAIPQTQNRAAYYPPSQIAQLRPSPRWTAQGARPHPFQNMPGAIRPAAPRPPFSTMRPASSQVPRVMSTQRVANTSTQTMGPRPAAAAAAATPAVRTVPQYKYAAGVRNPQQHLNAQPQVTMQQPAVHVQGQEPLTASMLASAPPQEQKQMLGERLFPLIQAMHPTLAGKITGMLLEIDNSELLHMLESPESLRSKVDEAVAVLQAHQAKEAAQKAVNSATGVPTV
# [5] = target: Tyrosine-protein phosphatase non-receptor type 11 (Homo sapiens, UniProt Q06124); assay: SHP2 phosphatase inhibition, dose response, selectivity assay for STEP inhibitor project, biochemical (AID 602367); format: functional; conditions: read-out: IC50_Mean
# Sequence of Tyrosine-protein phosphatase non-receptor type 11 (Q06124 whole entry, the tested form may be a part): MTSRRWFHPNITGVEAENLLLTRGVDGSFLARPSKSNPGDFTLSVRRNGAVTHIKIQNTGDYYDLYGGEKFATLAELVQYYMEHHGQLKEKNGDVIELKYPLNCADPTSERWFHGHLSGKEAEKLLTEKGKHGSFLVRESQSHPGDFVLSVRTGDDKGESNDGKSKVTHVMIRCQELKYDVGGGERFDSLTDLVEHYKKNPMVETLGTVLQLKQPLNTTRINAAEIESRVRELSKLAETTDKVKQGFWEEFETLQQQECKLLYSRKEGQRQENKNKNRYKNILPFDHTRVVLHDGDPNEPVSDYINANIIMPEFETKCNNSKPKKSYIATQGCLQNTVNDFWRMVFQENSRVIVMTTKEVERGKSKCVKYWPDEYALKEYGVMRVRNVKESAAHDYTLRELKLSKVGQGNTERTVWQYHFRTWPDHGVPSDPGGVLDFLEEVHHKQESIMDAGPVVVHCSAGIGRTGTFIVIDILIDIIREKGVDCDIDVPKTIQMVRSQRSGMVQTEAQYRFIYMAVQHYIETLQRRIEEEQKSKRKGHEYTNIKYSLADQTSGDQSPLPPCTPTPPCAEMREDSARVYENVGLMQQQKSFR
# [6] = target: T2, Carboxy-terminal domain RNA polymerase II polypeptide A small phosphatase 1 (Homo sapiens, UniProt Q9GZU7); assay: inhibitors of CTDSP1, concentration-response testing, biochemical assay, absorbance-based, actives from ultra-high-throughput screening (AID 540297); format: functional
# T2 sequence (Q9GZU7 whole entry): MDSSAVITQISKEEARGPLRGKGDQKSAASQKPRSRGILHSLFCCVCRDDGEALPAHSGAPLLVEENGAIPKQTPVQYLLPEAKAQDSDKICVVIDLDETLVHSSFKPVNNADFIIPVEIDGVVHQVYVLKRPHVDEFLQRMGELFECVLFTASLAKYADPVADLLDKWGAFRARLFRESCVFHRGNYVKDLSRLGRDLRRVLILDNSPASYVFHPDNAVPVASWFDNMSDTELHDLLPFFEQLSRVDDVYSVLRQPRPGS
# [7] = target: Dual specificity protein phosphatase 3 (Homo sapiens, UniProt P51452); assay: VHR phosphatase inhibition, dose response, selectivity assay for STEP inhibitor project, biochemical (AID 602374); format: functional; conditions: read-out: IC50_Mean
# Sequence of Dual specificity protein phosphatase 3 (P51452 whole entry): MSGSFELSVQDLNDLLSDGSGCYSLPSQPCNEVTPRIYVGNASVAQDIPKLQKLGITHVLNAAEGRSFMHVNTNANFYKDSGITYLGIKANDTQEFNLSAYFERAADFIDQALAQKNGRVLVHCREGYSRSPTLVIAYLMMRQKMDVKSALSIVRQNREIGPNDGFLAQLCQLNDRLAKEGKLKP
# [8] = target: Tyrosine-protein phosphatase non-receptor type 5 (Homo sapiens, UniProt P54829); assay: STEP phosphatase inhibitors, confirmation, biochemical, fluorescence intensity, uHTS hits (AID 602372); format: functional; conditions: read-out: IC50_Mean
# Sequence of Tyrosine-protein phosphatase non-receptor type 5 (P54829 whole entry): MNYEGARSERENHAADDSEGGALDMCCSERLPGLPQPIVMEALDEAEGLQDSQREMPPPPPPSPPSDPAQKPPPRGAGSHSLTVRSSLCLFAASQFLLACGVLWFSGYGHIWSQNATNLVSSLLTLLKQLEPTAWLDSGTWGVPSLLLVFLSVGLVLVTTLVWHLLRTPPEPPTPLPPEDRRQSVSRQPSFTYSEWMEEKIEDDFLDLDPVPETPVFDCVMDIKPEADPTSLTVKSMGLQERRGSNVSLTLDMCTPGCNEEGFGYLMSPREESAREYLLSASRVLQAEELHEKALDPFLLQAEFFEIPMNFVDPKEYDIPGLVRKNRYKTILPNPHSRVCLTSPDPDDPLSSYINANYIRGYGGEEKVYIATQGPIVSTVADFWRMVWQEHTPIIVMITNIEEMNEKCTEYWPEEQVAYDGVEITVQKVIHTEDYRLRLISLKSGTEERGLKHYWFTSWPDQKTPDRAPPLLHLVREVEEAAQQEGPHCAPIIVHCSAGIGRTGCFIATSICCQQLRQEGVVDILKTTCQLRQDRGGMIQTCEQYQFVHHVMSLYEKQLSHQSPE
# [9] = target: T3, Sentrin-specific protease 1 (Homo sapiens, UniProt Q9P0U3); assay: potency of human SENP1 inhibitors, dose response, biochemical, kinetic FRET (AID 651697); format: functional; conditions: read-out: IC50_Mean
# T3 sequence (Q9P0U3 whole entry): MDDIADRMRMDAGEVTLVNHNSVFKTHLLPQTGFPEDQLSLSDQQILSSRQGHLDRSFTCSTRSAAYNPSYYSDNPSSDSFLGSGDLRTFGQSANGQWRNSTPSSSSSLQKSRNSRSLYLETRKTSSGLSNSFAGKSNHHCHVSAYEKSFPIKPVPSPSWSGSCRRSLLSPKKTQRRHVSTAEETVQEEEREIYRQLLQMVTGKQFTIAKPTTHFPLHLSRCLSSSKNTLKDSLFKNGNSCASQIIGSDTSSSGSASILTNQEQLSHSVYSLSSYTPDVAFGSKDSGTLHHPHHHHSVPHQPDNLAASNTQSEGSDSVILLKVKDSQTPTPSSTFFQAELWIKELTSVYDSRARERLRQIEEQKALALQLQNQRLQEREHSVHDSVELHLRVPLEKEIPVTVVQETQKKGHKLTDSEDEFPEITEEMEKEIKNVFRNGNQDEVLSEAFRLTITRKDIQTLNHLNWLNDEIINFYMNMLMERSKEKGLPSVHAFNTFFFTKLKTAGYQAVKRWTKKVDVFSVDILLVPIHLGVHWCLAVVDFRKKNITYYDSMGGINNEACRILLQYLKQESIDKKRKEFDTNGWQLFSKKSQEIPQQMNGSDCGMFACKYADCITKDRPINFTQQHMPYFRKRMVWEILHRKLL
# [10] = target: T3, Sentrin-specific protease 1; assay: Dose response confirmation of small molecule inhibitors of the catalytic domain of the SUMO protease, SENP1 in a FRET assay.; format: functional; conditions: read-out: IC50_Mean
# [11] = target: T4, Low molecular weight phosphotyrosine protein phosphatase (Homo sapiens, UniProt P24666); format: functional; conditions: read-out: IC50_Mean
# T4 sequence (P24666 whole entry): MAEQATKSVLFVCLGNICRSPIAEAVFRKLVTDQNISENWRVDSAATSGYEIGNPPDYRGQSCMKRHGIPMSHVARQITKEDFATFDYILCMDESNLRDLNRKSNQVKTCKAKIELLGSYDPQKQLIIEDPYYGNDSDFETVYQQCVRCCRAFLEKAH
# [12] = target: T4, Low molecular weight phosphotyrosine protein phosphatase; format: functional; conditions: read-out: IC50_Mean; remark: listed apart in the source
# [13] = target: T5, Probable nicotinate-nucleotide adenylyltransferase (Staphylococcus aureus (strain N315), UniProt P65502); format: functional, Staphylococcus aureus subsp. aureus N315;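 on IC50 Mean: confirmatory dose-response retesting of NadD inhibitor hits first found in an ultra-high-throughput screen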
# T5 sequence (P65502 whole entry): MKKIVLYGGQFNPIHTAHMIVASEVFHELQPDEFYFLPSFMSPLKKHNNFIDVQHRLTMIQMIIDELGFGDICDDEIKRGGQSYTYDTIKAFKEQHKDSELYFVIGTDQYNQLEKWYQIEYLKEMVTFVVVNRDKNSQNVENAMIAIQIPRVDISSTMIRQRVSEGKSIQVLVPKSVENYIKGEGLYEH
# [14] = target: T5, Probable nicotinate-nucleotide adenylyltransferase; format: functional, Staphylococcus aureus subsp. aureus N315; conditions: read-out: IC50_Mean
# [15] = tested on: Vero; assay: cells; format: functional; conditions: Chlorocebus sabaeus
# [16] = target: Arf-GAP with SH3 domain, ANK repeat and PH domain-containing protein 1 (Homo sapiens, UniProt Q9ULH1); format: functional;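 further: biochemical fluorescence polarization dose–response screen measuring inhibition of ASAP1; ASAP1 GAP domain stimulating GTP hydrolysis by truncated human ARF1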
# Sequence of Arf-GAP with SH3 domain, ANK repeat and PH domain-containing protein 1 (Q9ULH1 whole entry, the tested form may be a part): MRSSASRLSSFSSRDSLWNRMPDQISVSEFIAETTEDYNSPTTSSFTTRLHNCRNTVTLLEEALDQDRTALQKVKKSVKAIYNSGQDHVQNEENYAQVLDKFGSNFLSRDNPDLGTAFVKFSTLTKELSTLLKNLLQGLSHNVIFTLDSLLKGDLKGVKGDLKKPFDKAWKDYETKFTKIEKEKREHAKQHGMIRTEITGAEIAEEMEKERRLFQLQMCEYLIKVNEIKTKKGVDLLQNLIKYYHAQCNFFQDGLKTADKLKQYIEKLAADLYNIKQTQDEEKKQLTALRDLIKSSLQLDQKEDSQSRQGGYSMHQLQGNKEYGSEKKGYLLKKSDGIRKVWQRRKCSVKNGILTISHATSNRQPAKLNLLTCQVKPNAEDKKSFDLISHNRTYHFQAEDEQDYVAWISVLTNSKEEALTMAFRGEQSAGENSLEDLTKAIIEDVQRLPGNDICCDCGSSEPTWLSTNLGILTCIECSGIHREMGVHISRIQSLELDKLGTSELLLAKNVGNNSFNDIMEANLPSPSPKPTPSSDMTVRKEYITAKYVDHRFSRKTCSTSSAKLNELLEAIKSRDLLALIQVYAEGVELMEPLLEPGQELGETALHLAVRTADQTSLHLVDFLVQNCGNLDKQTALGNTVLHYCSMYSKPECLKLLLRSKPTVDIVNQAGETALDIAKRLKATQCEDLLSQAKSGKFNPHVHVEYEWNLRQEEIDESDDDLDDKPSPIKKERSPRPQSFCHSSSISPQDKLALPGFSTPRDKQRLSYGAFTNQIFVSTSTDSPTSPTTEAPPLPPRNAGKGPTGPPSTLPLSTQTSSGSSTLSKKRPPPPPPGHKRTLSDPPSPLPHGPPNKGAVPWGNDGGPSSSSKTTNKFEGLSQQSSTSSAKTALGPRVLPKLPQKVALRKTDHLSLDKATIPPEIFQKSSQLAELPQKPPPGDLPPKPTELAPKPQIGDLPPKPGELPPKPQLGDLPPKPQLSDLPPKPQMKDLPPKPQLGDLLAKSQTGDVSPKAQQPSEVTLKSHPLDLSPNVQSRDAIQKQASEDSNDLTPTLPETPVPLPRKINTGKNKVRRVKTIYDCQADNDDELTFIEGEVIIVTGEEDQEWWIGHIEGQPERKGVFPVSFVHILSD
smiles,measurement,setting,value
COc1ccc(/C=N/NC2=NC(=O)C(CC(=O)O)S2)cc1OCc1ccc(Cl)cc1Cl (stereo unspecified),IC50,[1],33.8 µM (inactive)
same,IC50,[2],14.7 µM (active)
same,IC50,[3],59.4 µM (active)
same,IC50,[4],64.3 µM (active)
same,IC50,[5],4.42 µM (active)
same,IC50,[6],4.48 µM (active)
same,IC50,[7],4.79 µM (active)
same,IC50,[8],9.72 µM (active)
CCc1nnc(NC(=O)CCN2C(=O)/C(=C/c3cc(OC)c(OC)c(OC)c3)SC2=S)s1,IC50,[9],29.9 µM (inactive)
same,IC50,[10],13.3 µM (active)
Oc1c2c(nc3cc(-c4ccc(Cl)cc4)nn13)CCS2,IC50,[11],13.4 µM (active)
same,IC50,[12],16.3 µM (active)
O=C(NNS(=O)(=O)c1ccc2ccccc2c1)c1cc(-c2ccccn2)nc2ccccc12,IC50,[13],11.7 µM (active)
same,IC50,[14],28.9 µM (active)
COCCn1cnc2c(c1=O)c1nc3ccccc3nc1n2/N=C/c1ccc(OC)c(OC)c1,CC50,[15],23.5 µM (active)
same,IC50,[16],41.7 µM (inactive)

# Reference: ChEMBL document CHEMBL1201862, “PubChem BioAssay data set” (2004)
